Experiments:
DNA polymerase = test: Inhibition of DNA polymerase by the triphosphate; type: biochemical; conditions: triphosphate compared with Ara-ATP
Source text: (§1) Inhibition of DNA polymerase is considered to be responsible for the biologic activity of AraA. The levels of F-AraATP attainable in leukemia L1210 cells in mice from the administration of 2-F-AraA are much higher than the level of AraATP atainable in these cells after administration of AraA. As a result of the maintenance of these levels of the inhibitor, F-AraATP, in them, the leukemia cells are effectively destroyed in animals. […] 2-F-AraA was also active against leukemia L1210 when administered by the oral route.

[1] = background statement; cited from earlier work
leukemias = conditions: background statement; cited from earlier work
adenosine deaminase = conditions: cited from earlier work
Leukemia L1210 = test: Therapeutic activity against leukemia L1210 implanted i.p. in mice; type: in vivo
Source text: as §1
^a 10^5 L1210 ascites cells implanted i.p. on day 0.
^b Treatments reported were selected from a range of dose levels from
lethally toxic to apparently nontoxic.
more than 16% (1/6 treated mice) dying without gross evidence of
progressive leukemia (splenomegaly), except those treated orally, in whic
^c i.p. = intraperitoneal; oral = drug administered directly into
^d % ILS = % increase in life span, compared to untreated control;
excluding 60day survivors.
^e Based on median day of death in dying animals only. Figures in
parentheses based on % survivors.
2-F-AraA was given i.p. or orally on the basis of average mouse body weight. Therapeutic activity based on observed increase in median life span of treated animals over untreated controls and on estimates of the number of viable L1210 cells present at the end of treatment is summarized in Table 2.

Row | Structure (SMILES) | inhibition of DNA polymerase (DNA polymerase) | antiviral activity [1] | antileukemic activity (leukemias) | deamination of AraA in vivo to AraH (adenosine deaminase) | activity against leukemia L1210 (Leukemia L1210; AraA under similar conditions) | leukemia cells at the end of treatment (Leukemia L1210; AraA, 10^5 cells at the beginning) | therapeutic activity against L1210 leukemia (Leukemia L1210; in the absence of adenosine deaminase inhibitors)
1 | Nc1nc(F)nc2c1ncn2[C@@H]1O[C@H](COP(=O)(O)OP(=O)(O)OP(=O)(O)O)[C@@H](O)[C@@H]1O [F-AraATP] | as potent an inhibitor of DNA polymerase as Ara-ATP | – | – | – | – | – | –
2 | O=c1[nH]cnc2c1ncn2[C@@H]1O[C@H](CO)[C@@H](O)[C@@H]1O [AraH, 9-β-D-arabinofuranosylhypoxanthine] | – | some antiviral | no antileukemic activity | – | – | – | –
3 | Nc1ncnc2c1ncn2[C@@H]1O[C@H](CO)[C@@H](O)[C@@H]1O [AraA, 9-β-D-arabinofuranosyladenine, reference compound] | – | potent antiviral agent | little potential | rapid deamination | essentially devoid of activity | 3×10^8 cells | no significant therapeutic activity
